We go through two compounds from patent publication EP3381909A1, “NEW TRIAZINE SUBSTANCE FOR USE IN THE TREATMENT OF CANCER, SPECIFICALLY IN THE TREATMENT OF NON-SMALL CELL CANCER, AND PHARMACEUTICAL COMPOSITION COMPRISING SAID SUBSTANCE” (Universite de Nantes, priority 2017, dated 2018).

Where two headings read alike, the source gives them in different places. Where only a bound is given, the exact number is not on record here.

One assay concerns synchronized cells. The assay can be described thus: Activity kinetics on synchronized cells (data not shown). In kind it is cell-based. The text has this: (§1) During the mitosis, cell shape and adhesion are radically changed. Indeed, this phase induces a depolymerization of the microtubules, a loss of the cytoskeleton and consequently a decrease of the adhesion to the support. […] It is thus easy to isolate these cells by a slight agitation of the culture medium in order to remove and suspend the cells. The cells are then recovered by slow centrifugation and replaced in a new culture flask.
It was observed that the cell doubling time of the cell line NSCLC-N6-L16 is about 17 hours and 22-23 hours for A549. Indeed, the molecule A204 act on different genes such as HEF1, the expression of which is variable along the cell cycle.

Assay [1] relates to NSCLC-N6-L16 cells synchronised in M phase. The assay can be described thus: Gene expression by quantitative real-time RT-PCR in cells synchronised in M phase. The class given is cell-based, human.
Excerpt: as §1
(§2) Total RNA was extracted from NSCLC-N6-L16 and A549 cell lines using the Dynabeads® mRNA DirectTM Kit (Ambion by Life Technologies). The isolation protocol relies on base pairing between the polyA residues at the 3' end of most mRNA and the oligo (dT) residues covalently coupled to the surface of the Dynabeads®. The quality and concentration of purified RNA were assessed using UV absorbance at 260/280 nm and samples were run on 1% agarose gel in order to assess their quality. RNA was stored at - 80 °C.
RT was carried out with 1 µg of RNA in 10 µL with 0.125 µg/µL random primers and RNase-free water. This mixture was denatured at 65°C for 10 min then kept on ice. Subsequently, it was completed to a final volume of 25 µL with a mix containing 8 mM of dNTP mix, 1X of M- MLV 5X reaction buffer, 25 units of recombinant RNasin ribonuclease inhibitor (Promega), and 200 units of M-MLV RT (Promega) and RNase-free water. In order to check whether the samples were contaminated by genomic DNA, the same mix was made with RNA without the reverse transcriptase. Following this step, samples were incubated for 2 h at 37°C. cDNAs were stored at -20°C. After reverse transcription, cDNAs were used as a template for specific qPCR.
Real-time RT-PCR was carried out in a final volume of 25 µL with 1µL 1:20 dilution of diluted cDNA mixture, 10 pmol gene-specific forward and 10 pmol reverse primer in 1X SYBR Green PCR master mix (Eurogentec) with the following protocol: 15 s at 95 °C for denaturation, 30 s at 60°C for annealing and extension on a ABI Prism Sequence Detection System 5700 (Applied Biosystems). The primers were designed using Primer 3 (http://frodo.wi.mit.edu/). All primer sequences were controlled with a dimers finder to reduce the risk of unspecific hybridization of Sybr-green (Operon oligo toolkit: see https://www.operon.com(oligos/toolkit.php).
The relative expression of each gene was normalized to that of human β-actin: forward 5'-[…]-3' (SEQ ID NO: 13), reverse 5'-[…]-3' (SEQ ID NO: 14) (10 mM, Sigma Genosys). Normalization was carried out using the ΔΔCt method. Non-template control sample was used for each PCR to check the genomic DNA contaminations of the cDNA template. Analysis of the results was carried out using GenAmp 5700 SDS (Applied Biosystems) software.
The expression of four genes of interests were studied in the cell line NSCLC-N6-L16: HEF1, p53, C3G and FAK. It was carried out by RT-QPCR on the synchronized cells not treated (dark histograms) or treated (grey histograms) by A240 at the IC50. The study was performed between 10 and 17 hours in order to follow the gene expression with an extraction every hour.
(Quantitative PCR measures a nucleic acid by following its amplification.)

For assay [2], the system named is A549. The assay can be described thus: Cytotoxicity determination, continuous drug exposure (MTT colorimetric assay). In kind it is cell-based. The following applies: for IC50: Homo sapiens, A549 cell line, MTT, read-out: IC50: Half maximal inhibitory concentration. On the procedure: (§3) A549 and NSCLC-N6 cell lines were used for all experiments. They were obtained respectively from an adenocarcinoma and an epidermoid lung cancer. The NSCLC-N6-L16 cell line was derived from a human non-small-cell bronchopulmonary carcinoma (moderately differentiated, classified as T2N0M0). The A549 was obtained from the ATCC collection (reference CCL-185) and is known to have a wild type p53 gene, while NSCLC-N6 has a mutant p53 gene, similar to the in situ tumors.
(§4) Both cell lines were cultured in RPMI-1640 medium with 5% fetal bovine serum, to which were added 100 IU penicillin/ml, 100 µg/mL streptomycin and 2 mM glutamine at 37°C in an air/carbon dioxide (95:5, v/v) atmosphere. The NSCLC-N6-L16 cell line is a model which never exceeded 35 passages in all experiments. Then this model stays very close to the original tumor.
(§5) Experiments were performed in 96-well microtiter plates (10^5 cells/mL for NSCLC-N6-L16 and 2X10^4 cells/mL for A549). Cell growth was estimated by a colorimetric assay based on the conservation of tetrazolium dye (MTT) to a blue formazan product by live mitochondria. Eight repeats were performed for each concentration. Control growth was estimated from 8 determinations. Optical density at 570 nm corresponding to solubilized formazan was read for each well on a Titertek Multiskan MKII.

The subject of assay [3] is NSCLC-N6-L16. Described as above. In kind it is cell-based. The following applies: Homo sapiens, read-out: IC50: Half maximal inhibitory concentration. Here is the method:
as §3, §4, §5

Assay [4] concerns NSCLC-N6-L16. The assay can be described thus: Continuous drug exposure growth kinetics over 72 h. The class given is cell-based, human. The following applies: for "plateau" of cytostatic type, time of treatment after which it is visible: NSCLC-N6-L16, highest doses, A190: 104.9 µM, 78.9 µM, A204: 8.4 µM, 5.6 µM. On the procedure:
as §5
(§6) The kinetics were carried out on the two cell lines NSCLC-N6-L16 and A549 over a time of 72 h. The results are presented in the graphs of figures 1 to 4 representing the cell growth as a function of time. One of the curves represents the cell growth control; the others correspond to the different concentrations tested. The latter are chosen according to the IC50 in order to surround it at best (Table 3).

Assay [5] relates to A549 cells synchronised in M phase. In words: Gene expression by quantitative real-time RT-PCR in cells synchronised in M phase. In kind it is cell-based. The following applies: A549, at 17 hours; treated at the IC50 (figure legend: 39.4µM).
Excerpt: as §1, §2
RT was carried out with 1 µg of RNA in 10 µL with 0.125 µg/µL random primers and RNase-free water. This mixture was denatured at 65°C for 10 min then kept on ice. Subsequently, it was completed to a final volume of 25 µL with a mix containing 8 mM of dNTP mix, 1X of M- MLV 5X reaction buffer, 25 units of recombinant RNasin ribonuclease inhibitor (Promega), and 200 units of M-MLV RT (Promega) and RNase-free water. […]

In assay [6] the test system is A549. The assay can be described thus: Continuous drug exposure growth kinetics over 72 h. The class given is cell-based. The following applies: for cell growth (proliferation) versus time: A549, 72 h kinetics. Here is the method:
as §5, §6

The subject of assay [7] is A549 cells synchronised in M phase. The following applies: after 17 hours of treatment, previous work; cited from earlier work.
The test system of another assay is mutant p53, NEDD9 gene. The following applies: Rousseau et al., Sci. Rep. 5, 10556, 2015; cited from earlier work.

`NC1=NC(C23CC4CC(CC(C4)C2)C3)N(Cc2ccc(Cl)cc2)C(N)=N1` (centres unmarked) [A204, 4,6-diamino-1,2-dihydro-1-(4"-chlorobenzyl)-2-(1-tricyclo [3.3.1.1,4]decyl)-1,3,5-triazine]: the “time at which the effect of the treatment is beginning” value with synchronized cells is listed as “around 30 hours”. For the same compound, the “expression of gene P53” value in assay [1] (10 to 17 hours, treated vs control) was “clearly shows an influence of the treatment on the expression”. Also, in assay [1] (NSCLC-N6-L16, same cytostatic effect, relative to A190), the “time of action compared with A190” value is reported as “three hours earlier”. Moreover, the “expression of gene C3G” value was “collapse” in assay [1] (at 17 hours (G2 / M phase)); “widely overexpressed” in [1] (between 11 and 13 hours (end of G1 phase)); “goes up gradually” in [1] (between 13 and 16h). Moreover, the “expression of gene HEF1” value in assay [1] (at around 12 hours, treated at the IC50 (figure legend: 39.4µM) vs control) is listed as “highly overexpressed”; in [1] (between 13 and 15 hours) it was “collapses”; in assay [1] (between 15 and 17 hours (G2 / M phase)), “relatively close to the level of the control cells”. Besides, in [1] (between 12 and 16 hours (phase of synthesis)), the “expression of gene FAK” value is reported as “decreased expression”. For the same compound, the “IC50 / amount required compared with A190” value in the assay on A549 [2] (A549, relative to A190) is given as “seven times less”. Besides, the values for the IC50 with A549 [2] and in the assay on NSCLC-N6-L16 [3] were 9.7 ± 0.7 µM and 5.01 ± 0.5 µM, respectively. Also, in the assay on NSCLC-N6-L16 [4], the “"plateau" of cytostatic type, time of treatment after which it is visible” value is above 48 h. Moreover, the “expression of gene AKT” value in assay [5] is recorded as “overexpression”. In [5], the “expression of gene PI3K” value is given as “overexpression”. For the same compound, the “cell growth (proliferation) versus time” value with A549 [6] is recorded as “follow perfectly that of the control cells”.

`NC1=NC(C23CC4CC(CC(C4)C2)C3)N(c2ccc(Cl)cc2)C(N)=N1` (centres unmarked) [A190]: the results for the IC50 in the assay with A549 [2] and in the assay with NSCLC-N6-L16 [3] were 71 ± 1.2 µM and 24.1 ± 2.2 µM, respectively. Further, the “cell growth (proliferation) versus time” value was “reduced for both cell lines in a dose-dependent manner” in the assay with NSCLC-N6-L16 [4] (NSCLC-N6-L16, 72 h kinetics) and “reduced for both cell lines in a dose-dependent manner” in the assay with A549 [6]. Also, the “cytostatic activity since (concentration)” value with NSCLC-N6-L16 [4] (NSCLC-N6-L16, continuous exposure) was at least 26.3 µM; with A549 [6] (A549, continuous exposure), at least 26.3 µM. In addition, in the assay with NSCLC-N6-L16 [4], the “"plateau" of cytostatic type, time of treatment after which it is visible” value is above 48 h. Moreover, the “plateau of cytostatic type, time of treatment after which it is visible” value in the assay on A549 [6] (A549, A190 at 104.9, 78.9, 52.6, 26 µM) is above 48 h. The “expression of gene AKT” value in assay [7] is “overexpression”. In addition, in assay [7], the “expression of gene PI3K” value is “overexpression”. For the same compound, the “expression of the NEDD9 gene” value in the assay with mutant p53, NEDD9 gene is on record as “overexpression”. In addition, in the assay with mutant p53, NEDD9 gene, the “mutant p53 activity” value is on record as “restores mutant p53 activity”.
